Values after ≈ are worked out from the molar mass of the structure shown.
What was measured:
Staphylococcus aureus [1] = assay: Antibacterial activity against methicillin-susceptible Staphylococcus aureus ATCC 29213 by broth dilution assay; type: functional
Staphylococcus aureus [2] = assay: Antibacterial activity against methicillin-resistant Staphylococcus aureus clinical isolate SA86 by broth dilution assay; type: functional

CC[C@@H](C)[C@@H](NC(=O)[C@@H](CCC(N)=O)NC(=O)[C@H](CO)NC(=O)[C@@H](NC(=O)[C@@H](Cc1ccccc1)NC)[C@@H](C)CC)C(=O)N[C@H](C(=O)N[C@@H](CO)C(=O)N[C@H]1C(=O)N[C@@H](C)C(=O)N[C@@H](CCCN)C(=O)N[C@@H]([C@@H](C)CC)C(=O)O[C@H]1C)[C@@H](C)CC
MIC (Staphylococcus aureus [1]): 2 µg/mL (≈ 1.66 µM) | MIC (Staphylococcus aureus [2]): 2 µg/mL (≈ 1.66 µM)

CC[C@@H](C)[C@@H](NC(=O)[C@@H](CC(N)=O)NC(=O)[C@H](CO)NC(=O)[C@@H](NC(=O)[C@@H](Cc1ccccc1)NC)[C@@H](C)CC)C(=O)N[C@H](C(=O)N[C@@H](CO)C(=O)N[C@H]1C(=O)N[C@@H](C)C(=O)N[C@@H](CCCN)C(=O)N[C@@H]([C@@H](C)CC)C(=O)O[C@H]1C)[C@@H](C)CC
MIC (Staphylococcus aureus [1]): 4 µg/mL (≈ 3.37 µM) | MIC (Staphylococcus aureus [2]): 4 µg/mL (≈ 3.37 µM)

CC[C@@H](C)[C@@H](NC(=O)[C@@H](CCC(N)=O)NC(=O)[C@H](CCCCN)NC(=O)[C@@H](NC(=O)[C@@H](Cc1ccccc1)NC)[C@@H](C)CC)C(=O)N[C@H](C(=O)N[C@@H](CO)C(=O)N[C@H]1C(=O)N[C@@H](C)C(=O)N[C@@H](CCCN)C(=O)N[C@@H]([C@@H](C)CC)C(=O)O[C@H]1C)[C@@H](C)CC
MIC (Staphylococcus aureus [1]): 4 µg/mL (≈ 3.22 µM) | MIC (Staphylococcus aureus [2]): 8 µg/mL (≈ 6.43 µM)

CC[C@@H](C)[C@@H](NC(=O)[C@@H](CCC(N)=O)NC(=O)[C@H](CO)NC(=O)[C@@H](NC(=O)[C@@H](Cc1ccccc1)NC)[C@@H](C)O)C(=O)N[C@H](C(=O)N[C@@H](CO)C(=O)N[C@H]1C(=O)N[C@@H](C)C(=O)N[C@@H](CCCN)C(=O)N[C@@H]([C@@H](C)CC)C(=O)O[C@H]1C)[C@@H](C)CC
MIC (Staphylococcus aureus [1]): ≥ 32 µg/mL | MIC (Staphylococcus aureus [2]): ≥ 32 µg/mL

CC[C@@H](C)[C@@H](NC(=O)[C@@H](CCC(N)=O)NC(=O)[C@H](CO)NC(=O)[C@@H](NC(=O)[C@@H](Cc1ccccc1)NC)C(C)C)C(=O)N[C@H](C(=O)N[C@@H](CO)C(=O)N[C@H]1C(=O)N[C@@H](C)C(=O)N[C@@H](CCCN)C(=O)N[C@@H]([C@@H](C)CC)C(=O)O[C@H]1C)[C@@H](C)CC
MIC (Staphylococcus aureus [1]): 8 µg/mL (≈ 6.73 µM) | MIC (Staphylococcus aureus [2]): 8 to 16 µg/mL (≈ 6.73 to 13.5 µM)

CC[C@@H](C)[C@@H](NC(=O)[C@@H](CCC(N)=O)NC(=O)[C@H](CO)NC(=O)[C@@H](NC(=O)[C@@H](C)NC)[C@@H](C)CC)C(=O)N[C@H](C(=O)N[C@@H](CO)C(=O)N[C@H]1C(=O)N[C@@H](C)C(=O)N[C@@H](CCCN)C(=O)N[C@@H]([C@@H](C)CC)C(=O)O[C@H]1C)[C@@H](C)CC
MIC (Staphylococcus aureus [1]): ≥ 32 µg/mL | MIC (Staphylococcus aureus [2]): ≥ 32 µg/mL

CC[C@H](C)[C@H](NC(=O)[C@@H](C)NC(=O)[C@@H](CCC(N)=O)NC(=O)[C@H](CO)NC(=O)[C@@H](NC(=O)[C@@H](Cc1ccccc1)NC)[C@@H](C)CC)C(=O)N[C@@H](CO)C(=O)N[C@H]1C(=O)N[C@@H](C)C(=O)N[C@@H](CCCN)C(=O)N[C@@H]([C@@H](C)CC)C(=O)O[C@H]1C
MIC (Staphylococcus aureus [1]): ≥ 32 µg/mL | MIC (Staphylococcus aureus [2]): ≥ 32 µg/mL

CC[C@@H](C)[C@@H](NC(=O)[C@@H](CCC(N)=O)NC(=O)[C@H](CO)NC(=O)[C@@H](NC(=O)[C@H](Cc1ccccc1)NC)[C@@H](C)CC)C(=O)N[C@H](C(=O)N[C@@H](CO)C(=O)N[C@H]1C(=O)N[C@@H](C)C(=O)N[C@@H](CCCN)C(=O)N[C@@H]([C@@H](C)CC)C(=O)O[C@H]1C)[C@@H](C)CC
MIC (Staphylococcus aureus [1]): ≥ 32 µg/mL | MIC (Staphylococcus aureus [2]): ≥ 32 µg/mL

CC[C@@H](C)[C@@H](NC(=O)[C@H](CCC(N)=O)NC(=O)[C@H](CO)NC(=O)[C@@H](NC(=O)[C@@H](Cc1ccccc1)NC)[C@@H](C)CC)C(=O)N[C@H](C(=O)N[C@@H](CO)C(=O)N[C@H]1C(=O)N[C@@H](C)C(=O)N[C@@H](CCCN)C(=O)N[C@@H]([C@@H](C)CC)C(=O)O[C@H]1C)[C@@H](C)CC
MIC (Staphylococcus aureus [1]): ≥ 32 µg/mL | MIC (Staphylococcus aureus [2]): ≥ 32 µg/mL

CC[C@@H](C)[C@@H](NC(=O)[C@@H](CCC(N)=O)NC(=O)[C@H](C)NC(=O)[C@@H](NC(=O)[C@@H](Cc1ccccc1)NC)[C@@H](C)CC)C(=O)N[C@H](C(=O)N[C@@H](CO)C(=O)N[C@H]1C(=O)N[C@@H](C)C(=O)N[C@@H](CCCN)C(=O)N[C@@H]([C@@H](C)CC)C(=O)O[C@H]1C)[C@@H](C)CC
MIC (Staphylococcus aureus [1]): 4 µg/mL (≈ 3.37 µM) | MIC (Staphylococcus aureus [2]): 4 µg/mL (≈ 3.37 µM)

CC[C@@H](C)[C@@H](NC(=O)[C@@H](CCC(N)=O)NC(=O)[C@H](CO)NC(=O)[C@H](NC(=O)[C@@H](Cc1ccccc1)NC)[C@@H](C)CC)C(=O)N[C@H](C(=O)N[C@@H](CO)C(=O)N[C@H]1C(=O)N[C@@H](C)C(=O)N[C@@H](CCCN)C(=O)N[C@@H]([C@@H](C)CC)C(=O)O[C@H]1C)[C@@H](C)CC
MIC (Staphylococcus aureus [1]): ≥ 32 µg/mL | MIC (Staphylococcus aureus [2]): ≥ 32 µg/mL

CC[C@H](C)[C@H](NC(=O)[C@@H](Cc1ccccc1)NC)C(=O)N[C@@H](CO)C(=O)N[C@H](CCC(N)=O)C(=O)N[C@@H](C(=O)N[C@H](C(=O)N[C@@H](CO)C(=O)N[C@H]1C(=O)N[C@@H](C)C(=O)N[C@@H](CCCN)C(=O)N[C@@H]([C@@H](C)CC)C(=O)O[C@H]1C)[C@@H](C)CC)C(C)C
MIC (Staphylococcus aureus [1]): 8 to 16 µg/mL (≈ 6.73 to 13.5 µM) | MIC (Staphylococcus aureus [2]): 16 µg/mL (≈ 13.5 µM)

CC[C@@H](C)[C@@H](NC(=O)[C@@H](CCC(N)=O)NC(=O)[C@H](CO)NC(=O)[C@@H](NC(=O)[C@H](N)Cc1ccccc1)[C@@H](C)CC)C(=O)N[C@H](C(=O)N[C@@H](CO)C(=O)N[C@H]1C(=O)N[C@@H](C)C(=O)N[C@@H](CCCN)C(=O)N[C@@H]([C@@H](C)CC)C(=O)O[C@H]1C)[C@@H](C)CC
MIC (Staphylococcus aureus [1]): 16 µg/mL (≈ 13.5 µM) | MIC (Staphylococcus aureus [2]): 16 µg/mL (≈ 13.5 µM)

CC[C@@H](C)[C@@H](NC(=O)[C@@H](CCC(N)=O)NC(=O)[C@H](CO)NC(=O)[C@@H](NC(=O)[C@@H](Cc1ccccc1)NC)[C@@H](C)CC)C(=O)N[C@@H](C)C(=O)N[C@@H](CO)C(=O)N[C@H]1C(=O)N[C@@H](C)C(=O)N[C@@H](CCCN)C(=O)N[C@@H]([C@@H](C)CC)C(=O)O[C@H]1C
MIC (Staphylococcus aureus [1]): ≥ 32 µg/mL | MIC (Staphylococcus aureus [2]): ≥ 32 µg/mL

CC[C@@H](C)[C@@H](NC(=O)[C@@H](CCC(N)=O)NC(=O)[C@H](CC(N)=O)NC(=O)[C@@H](NC(=O)[C@@H](Cc1ccccc1)NC)[C@@H](C)CC)C(=O)N[C@H](C(=O)N[C@@H](CO)C(=O)N[C@H]1C(=O)N[C@@H](C)C(=O)N[C@@H](CCCN)C(=O)N[C@@H]([C@@H](C)CC)C(=O)O[C@H]1C)[C@@H](C)CC
MIC (Staphylococcus aureus [1]): 16 µg/mL (≈ 13 µM) | MIC (Staphylococcus aureus [2]): ≥ 32 µg/mL

CC[C@@H](C)[C@@H](NC(=O)[C@@H](CCC(N)=O)NC(=O)[C@H](CO)NC(=O)[C@H](Cc1ccccc1)NC(=O)[C@@H](Cc1ccccc1)NC)C(=O)N[C@H](C(=O)N[C@@H](CO)C(=O)N[C@H]1C(=O)N[C@@H](C)C(=O)N[C@@H](CCCN)C(=O)N[C@@H]([C@@H](C)CC)C(=O)O[C@H]1C)[C@@H](C)CC
MIC (Staphylococcus aureus [1]): ≥ 32 µg/mL | MIC (Staphylococcus aureus [2]): ≥ 32 µg/mL

CC[C@@H](C)[C@@H](NC(=O)[C@@H](CCC(N)=O)NC(=O)[C@H](CO)NC(=O)[C@H](CC(C)C)NC(=O)[C@@H](Cc1ccccc1)NC)C(=O)N[C@H](C(=O)N[C@@H](CO)C(=O)N[C@H]1C(=O)N[C@@H](C)C(=O)N[C@@H](CCCN)C(=O)N[C@@H]([C@@H](C)CC)C(=O)O[C@H]1C)[C@@H](C)CC
MIC (Staphylococcus aureus [1]): 4 to 8 µg/mL (≈ 3.33 to 6.65 µM) | MIC (Staphylococcus aureus [2]): 4 to 8 µg/mL (≈ 3.33 to 6.65 µM)

CC[C@@H](C)[C@@H](NC(=O)[C@@H](CCC(N)=O)NC(=O)[C@H](CO)NC(=O)[C@@H](NC(=O)[C@@H](Cc1ccccc1)NC)[C@@H](C)CC)C(=O)N[C@H](C(=O)N[C@@H](CO)C(=O)N[C@H]1C(=O)N[C@@H](C)C(=O)N[C@@H](CCNC(=N)N)C(=O)N[C@@H]([C@@H](C)CC)C(=O)O[C@H]1C)[C@@H](C)CC
MIC (Staphylococcus aureus [1]): 8 to 16 µg/mL (≈ 6.5 to 13 µM) | MIC (Staphylococcus aureus [2]): 16 µg/mL (≈ 13 µM)

CC[C@@H](C)[C@@H](NC(=O)[C@@H](CCC(N)=O)NC(=O)[C@H](CO)NC(=O)[C@H](C)NC(=O)[C@@H](Cc1ccccc1)NC)C(=O)N[C@H](C(=O)N[C@@H](CO)C(=O)N[C@H]1C(=O)N[C@@H](C)C(=O)N[C@@H](CCCN)C(=O)N[C@@H]([C@@H](C)CC)C(=O)O[C@H]1C)[C@@H](C)CC
MIC (Staphylococcus aureus [1]): ≥ 32 µg/mL | MIC (Staphylococcus aureus [2]): ≥ 32 µg/mL

From ChEMBL document CHEMBL4184145, “Synthesis and structure-activity relationship of teixobactin analogues via convergent Ser ligation” (2017)
